# Reference: patent US4639370A, “Pharmaceutical composition” (Farmitalia Carlo Erba S.p.A., priority 1984, dated 1987)
# Where two headings read alike, the source gives them in different places.
# Key:
# [1] = Source text: The completeness of the amorphization process can be checked by the absence in the Differential Scanning Calorimetry thermogram of the resulting drug-polymer system of the transition peak relative to the solid/liquid endothermic transition of the crystalline drug. The absence of the transition peak means that the enthalpy of melting is practically zero.
# This transformation is indicated by the shifting of the original endothermic peak of the DSC thermogram to lower temperatures, which leads to higher dissolution rates and bioavailability.
# Differential Scanning Calorimetry Data
# [2] = Solubility of griseofulvin systems, pH 7.4 buffer, 37° C.
# Protocol: (§1) The flasks were placed in a shaking thermostated apparatus and aliquots of sample solutions were taken by filtering through a Millipore membrane.
# The griseofulvin concentrations were determined by spectrophotometry (λ=294 nm).
# [3] = Solubility of MAP systems, pH 5.5 phosphate buffer, 37° C.; type: physicochemical
# Protocol: The flasks were placed in a shaking thermostated apparatus and aliquots of sample solutions were taken by filtering through a Millipore membrane. The concentration of MAP in the filtered aliquot was determined both by spectrophotometry (SP 8-100, Pye Unicam) after dilution with methanol, λ=247 nm, and by HPLC (column: Spherisorb S30 D52, Phase Sep.; mobile phase acetonitrile/water 70/30 v/v; flow rate 1 ml/min; U.V. detection, λ=242 nm), after dilution with acetonitrile.
# [4] = buffer, pH 2
# Protocol: as §1
# The indoprofen concentrations were determined by spectrophotometry (λ=280 nm).
# [5] = Solubility of indomethacin systems, pH 6.8 buffer, 37° C.; type: physicochemical
# Protocol: The indomethacin concentrations were determined by spectrophotometry (λ=317 nm).
compound,measurement,setting,value
"COC1=CC(=O)C[C@@H](C)[C@]12Oc1c(Cl)c(OC)cc(OC)c1C2=O [Pure crystalline Griseofulvin, griseofulvin]",Melting Point,[1],218.8 °C
same,% Residual of Original Heat of Fusion,"[1]; griseofulvin systems, Table 3",100%
same,Heat of Fusion,"[1]; griseofulvin systems, Table 3",119.22 J/g
same,Solubility (griseofulvin concentration),[2]; 5 min,9.1 µg/mL
same,Solubility (griseofulvin concentration),[2]; 15 min,11.0 µg/mL
same,Solubility (griseofulvin concentration),[2]; 1 hr,10.9 µg/mL
same,Solubility (griseofulvin concentration),[2]; 3 hrs,11.3 µg/mL
same,Solubility (griseofulvin concentration),[2]; 24 hrs,14.9 µg/mL
"CC(=O)O[C@]1(C(C)=O)CC[C@H]2[C@@H]3C[C@H](C)C4=CC(=O)CC[C@]4(C)[C@H]3CC[C@@]21C [Pure crystalline MAP, medroxyprogesterone acetate]",Melting Point,[1],205-206 °C
same,melting point,[1],205.6 °
same,% Residual of Original Heat of Fusion,"[1]; MAP systems, Table 1",100.0%
same,Heat of Fusion,"[1]; MAP systems, Table 1",88.0 J/g
same,Solubility (MAP dissolved),[3]; 5 min,< 0.04 µg/mL
same,Solubility (MAP dissolved),[3]; 15 min,0.32 µg/mL
same,Solubility (MAP dissolved),[3]; 1 hr,0.68 µg/mL
same,Solubility (MAP dissolved),[3]; 6 hrs,1.00 µg/mL
"CC(C(=O)O)c1ccc(N2Cc3ccccc3C2=O)cc1 (stereo not drawn) [Pure crystalline Indoprofen, indoprofen]",Melting Point,[1],212-215 °C
same,% Residual of Original Heat of Fusion,"[1]; indoprofen systems, Table 2",100.0%
same,Heat of Fusion,"[1]; indoprofen systems, Table 2",134.6 J/g
same,Solubility (indoprofen concentration),[4]; 5 min,1.6 µg/mL
same,Solubility (indoprofen concentration),[4]; 0.25 h,3.0 µg/mL
same,Solubility (indoprofen concentration),[4]; 1 h,4.8 µg/mL
same,Solubility (indoprofen concentration),[4]; 24 h,10.3 µg/mL
"COc1ccc2c(c1)c(CC(=O)O)c(C)n2C(=O)c1ccc(Cl)cc1 [Pure crystalline Indomethacin, indomethacin]",Heat of Fusion,"[1]; indomethacin systems, Table 4",110.8 J/g
same,Melting Point,"[1]; indomethacin systems, Table 4",160.2 °C
same,Solubility (indomethacin concentration),[5]; 5 min,230.2 µg/mL
same,Solubility (indomethacin concentration),[5]; 15 min,358.2 µg/mL
same,Solubility (indomethacin concentration),[5]; 1 hr,482.1 µg/mL
same,Solubility (indomethacin concentration),[5]; 3 hrs,502.8 µg/mL
same,Solubility (indomethacin concentration),[5]; 24 hrs,502.0 µg/mL
